Key:
[1] = molecular target: T1, human long isoform of D2 receptor (D2LR) (Homo sapiens, UniProt P14416); test: ebBRET assay of inhibition of dopamine-induced β-arrestin-2 translocation in HEK-293T cells; type: cell-based; conditions: 10 µM dopamine; for Ki: Ki (nM) (95% CI), apparent affinity, IC50 corrected by Cheng–Prusoff, HEK-293T
T1 construct: expressed in transfected cells; host or cells: HEK293T
Source text: (§1) Then, for every compound, we calculate the ratios of their K i and I max values for the two pathways.

[2] = molecular target: T1, human long isoform of D2 receptor (D2LR); test: BRET assay of Gi activation, agonistic effect at the D2R canonical pathway, in HEK-293T cells; type: cell-based; conditions: BRET signal after 5 min stimulation, decrease = activation
Description: HEK293T cells were cultured in Dulbecco’s modified eagle medium (DMEM) supplemented with 10% fetal bovine serum and 100 U/mL penicillin/streptomycin at 37°C in 5% CO2. Forty-eight hours before the experiments, cells were transfected in suspension, using polyethylenimine (PEI; 25 kDa linear; Polysciences, Warrington, PA, USA) at a ratio of 3:1 PEI/DNA, and directly seeded in 96-well white plates (OptiPlate; PerkinElmer) at a density of 4 × 10^4 cells/well and at 37°C in 5% CO2. When needed, total DNA amount was adjusted with salmon sperm DNA (Invitrogen, Carlsbad, CA, USA).

[3] = Solubility limit seen in inhibition curves; type: physicochemical; conditions: complete inhibition curves not obtained in Gi antagonism assay
[4] = molecular target: T1, human long isoform of D2 receptor (D2LR); test: BRET assay of inhibition of dopamine-induced Gi activation in HEK-293T cells; type: cell-based; conditions: 100 nM dopamine; for Ki: Ki (nM) (95% CI), apparent affinity, IC50 corrected by Cheng–Prusoff, HEK-293T; for I max for inhibition of the dopamine effect on Gi: text summary over 5 and 20 min
Source text: as §1

[5] = molecular target: T1, human long isoform of D2 receptor (D2LR); test: Estimation of functional selectivity between Gi and β-arr2 pathways (ratios of Ki, Imax, Imax/Ki); type: cell-based
Source text: as §1

T1 sequence (P14416 whole entry, canonical isoform): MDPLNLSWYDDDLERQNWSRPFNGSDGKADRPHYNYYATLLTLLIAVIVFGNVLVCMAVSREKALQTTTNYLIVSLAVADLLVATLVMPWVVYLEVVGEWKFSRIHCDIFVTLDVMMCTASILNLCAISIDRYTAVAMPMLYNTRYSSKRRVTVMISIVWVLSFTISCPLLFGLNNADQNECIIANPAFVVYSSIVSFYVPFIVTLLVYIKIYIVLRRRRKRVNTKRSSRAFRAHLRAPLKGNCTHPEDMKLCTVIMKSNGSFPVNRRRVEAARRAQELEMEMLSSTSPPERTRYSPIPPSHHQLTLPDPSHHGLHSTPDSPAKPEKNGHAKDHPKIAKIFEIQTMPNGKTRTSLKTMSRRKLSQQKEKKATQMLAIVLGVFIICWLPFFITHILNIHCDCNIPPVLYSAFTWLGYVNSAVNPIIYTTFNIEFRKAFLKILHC

SMILES | I max (% dopamine effect) ± S.E.M., 5 min β-arr ([1]; 5 min) [% dopamine effect] | I max (% dopamine effect) ± S.E.M., 20 min β-arr ([1]; 20 min) [% dopamine effect] | Ki ([1]; 5 min β-arr, 5 min) [nM] | Ki ([1]; 20 min β-arr, 20 min) [nM] | E max for Gi activation (change in BRET signal) [2] | Solubility [3] | I max (% dopamine effect) ± S.E.M., 5 min Gi ([4]; 5 min) [% dopamine effect] | I max (% dopamine effect) ± S.E.M., 20 min Gi ([4]; 20 min) [% dopamine effect] | Ki ([4]; 5 min Gi, 5 min) [nM] | Ki ([4]; 20 min Gi, 20 min) [nM] | I max for inhibition of the dopamine effect on Gi [4] | Imax (Gi)/Imax (β-arr) ([5]; 5 min) | Ki (Gi)/Ki (β-arr) ([5]; 5 min) | Imax (Gi)/Imax (β-arr) ([5]; 20 min) | Ki (Gi)/Ki (β-arr) ([5]; 20 min)
Clc1ccc(-n2cc(CN3CCN(c4ccccc4)CC3)cn2)cc1 [LASSBio-579, 1-((1-(4-chlorophenyl)-1H-pyrazol-4-yl)methyl)-4-phenylpiperazine] | 148 ± 20 | 129 ± 12 | 109 | 41.6 | −0.07 | lack of solubility at higher concentrations | 75.1 ± 16.3 | 72.4 ± 9.8 | 118 | 66.7 | 70–80% | 0.51 | 1.08 | 0.56 | 1.60
Oc1ccc(N2CCN(Cc3cnn(-c4ccc(Cl)cc4)c3)CC2)cc1 [LQFM 037] | 71.3 ± 12.3 | 94.2 ± 7.4 | 353 | 209 | −0.04 | lack of solubility at higher concentrations | 78.9 ± 19.2 | 71.6 ± 13.7 | 263 | 190 | 70–80% | 1.11 | 0.74 | 0.76 | 0.91
